Reference: patent publication US9309242B2, “Substituted pyrido[2,3-b]pyrazines as FGFR kinase inhibitors” (priority 2011, dated 2016)

How the values were obtained:
KDR (h) = KDR (h) (Homo sapiens, UniProt P35968); assay: KDR (VEGFR2) (enzymatic assay), TR-FRET; assay type: biochemical; settings: read-out: VEGFR 2 (KDR) pIC50 (converted)
Summary of the method: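 TR-FRET readout (ex 340, em 620/655 nm) in RFU after EDTA stop with Eu-anti-phosphotyrosine and SA-XL665 for 60 min. The preceding 120-min room-temperature kinase step used 150 ng/ml KDR (h), 3 μM ATP, 500 nM biotinylated Flt3 peptide, MnCl2-containing HEPES buffer pH 7.5, 1% DMSO.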

[1] = biological target: T1, Ba/F3-KDR-transfected cells (Homo sapiens, UniProt P35968); assay: Ba/F3-KDR (minus IL3) cellular proliferation assay, Alamar Blue; assay type: cell-based
T1 construct: BAF3-KDR (MIN IL3) pIC50; other: minus IL3
Summary of the method: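 Proliferation read-out by Alamar Blue fluorescence (ex. 540 nm, em. 590 nm) after 4 hours, following 24 hours of compound treatment at 37° C of 20000 Ba/F3-KDR cells per well in RPMI-1640/10% FBS. Same protocol with 10 ng/ml murine IL3 serves as counterscreen.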

[2] = system: Ba/F3-FGFR1-transfected cells; assay: Ba/F3-FGFR1 (plus IL3) cellular proliferation assay, counterscreen with 10 ng/ml murine IL3; assay type: cell-based; settings: plus IL3 (10 ng/ml murine IL3, counterscreen); read-out: BAF3-FGFR1 (PLUS IL3) pIC50 (converted)
Summary of the method: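 Proliferation read-out: resazurin-based Alamar Blue fluorescence (540/590 nm) after 4 h, following 24 h compound treatment of 20000 Ba/F3-FGFR1 cells per well in 10% FBS RPMI at 37° C. IL3 counterscreen used the same protocol plus 10 ng/ml murine IL3.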

[3] = system: Ba/F3-FGFR3-transfected cells; assay: Ba/F3-FGFR3 (plus IL3) cellular proliferation assay, counterscreen with 10 ng/ml murine IL3; assay type: cell-based; settings: plus IL3 (10 ng/ml murine IL3, counterscreen); read-out: BAF3-FGFR3 (PLUS IL3) pIC50 (converted)
Summary of the method: (§1)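 Viability readout was resazurin reduction (ex 540/em 590 nm) after 4 h, following 24 h compound treatment at 37 °C of FGFR3-transfected Ba/F3 cells (20000/well, RPMI-1640/10% FBS). IL3-dependent counterscreen used identical conditions plus 10 ng/ml murine IL3.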

[4] = biological target: Ba/F3-FGFR4-transfected cells (Homo sapiens, UniProt P22455); assay: Ba/F3-FGFR4 cellular proliferation assay, Alamar Blue; assay type: cell-based
Summary of the method: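 Proliferation is measured by resazurin reduction: after 24 h compound treatment at 37 °C in RPMI-1640/10% FBS, cells get Alamar Blue for 4 h before RFU read (540/590 nm). Each well holds 20000 Ba/F3-FGFR4-transfected cells.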

[5] = biological target: T2, Ba/F3-FGFR3-transfected cells (Homo sapiens, UniProt P22607); assay: Ba/F3-FGFR3 (minus IL3) cellular proliferation assay, Alamar Blue; assay type: cell-based
T2 construct: BAF3-FGFR3 (MIN IL3) pIC50; other: minus IL3
Summary of the method: as §1

T2 sequence (P22607 whole entry, change not shown): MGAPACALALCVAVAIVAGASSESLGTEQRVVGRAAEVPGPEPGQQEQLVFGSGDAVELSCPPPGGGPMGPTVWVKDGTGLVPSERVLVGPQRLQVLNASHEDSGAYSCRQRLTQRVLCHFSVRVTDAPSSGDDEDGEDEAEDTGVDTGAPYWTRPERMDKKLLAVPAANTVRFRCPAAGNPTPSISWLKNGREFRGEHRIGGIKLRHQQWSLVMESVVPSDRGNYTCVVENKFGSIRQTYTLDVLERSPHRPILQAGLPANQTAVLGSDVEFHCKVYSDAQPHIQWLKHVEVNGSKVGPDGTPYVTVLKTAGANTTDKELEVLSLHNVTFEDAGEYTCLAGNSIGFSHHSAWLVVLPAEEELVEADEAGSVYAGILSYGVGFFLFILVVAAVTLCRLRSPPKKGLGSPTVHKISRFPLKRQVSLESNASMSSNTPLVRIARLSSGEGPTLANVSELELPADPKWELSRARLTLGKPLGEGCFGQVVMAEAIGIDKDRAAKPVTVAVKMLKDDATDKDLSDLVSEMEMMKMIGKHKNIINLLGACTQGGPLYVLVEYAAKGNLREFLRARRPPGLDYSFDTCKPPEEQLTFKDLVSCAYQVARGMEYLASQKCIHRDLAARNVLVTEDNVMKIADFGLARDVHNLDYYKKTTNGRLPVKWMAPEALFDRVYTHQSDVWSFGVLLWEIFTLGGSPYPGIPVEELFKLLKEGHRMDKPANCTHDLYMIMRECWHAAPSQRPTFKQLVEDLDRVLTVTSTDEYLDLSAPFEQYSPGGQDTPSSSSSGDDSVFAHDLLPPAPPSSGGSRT
Sequence of Ba/F3-FGFR4-transfected cells (P22455 whole entry, change not shown): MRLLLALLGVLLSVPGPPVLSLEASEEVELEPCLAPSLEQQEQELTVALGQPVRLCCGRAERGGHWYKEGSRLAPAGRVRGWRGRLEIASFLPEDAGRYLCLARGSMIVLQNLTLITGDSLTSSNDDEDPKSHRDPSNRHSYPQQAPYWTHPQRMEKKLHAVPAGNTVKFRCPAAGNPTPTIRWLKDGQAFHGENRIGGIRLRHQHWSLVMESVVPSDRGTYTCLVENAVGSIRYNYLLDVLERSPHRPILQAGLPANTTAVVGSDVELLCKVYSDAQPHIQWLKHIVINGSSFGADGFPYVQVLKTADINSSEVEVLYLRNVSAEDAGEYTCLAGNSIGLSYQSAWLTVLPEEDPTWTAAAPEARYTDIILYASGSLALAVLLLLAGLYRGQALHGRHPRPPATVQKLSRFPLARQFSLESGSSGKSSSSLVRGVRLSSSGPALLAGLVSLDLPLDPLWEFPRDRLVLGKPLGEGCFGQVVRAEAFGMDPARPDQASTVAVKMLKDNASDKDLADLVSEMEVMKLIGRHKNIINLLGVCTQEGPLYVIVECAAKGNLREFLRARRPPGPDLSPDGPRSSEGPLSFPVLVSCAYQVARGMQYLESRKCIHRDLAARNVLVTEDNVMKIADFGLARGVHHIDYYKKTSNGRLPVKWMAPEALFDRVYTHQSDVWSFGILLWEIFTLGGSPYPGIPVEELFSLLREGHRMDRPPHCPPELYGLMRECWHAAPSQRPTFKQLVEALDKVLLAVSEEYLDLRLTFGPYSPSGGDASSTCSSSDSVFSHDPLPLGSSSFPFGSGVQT
Sequence of KDR (h) (P35968 20-1356): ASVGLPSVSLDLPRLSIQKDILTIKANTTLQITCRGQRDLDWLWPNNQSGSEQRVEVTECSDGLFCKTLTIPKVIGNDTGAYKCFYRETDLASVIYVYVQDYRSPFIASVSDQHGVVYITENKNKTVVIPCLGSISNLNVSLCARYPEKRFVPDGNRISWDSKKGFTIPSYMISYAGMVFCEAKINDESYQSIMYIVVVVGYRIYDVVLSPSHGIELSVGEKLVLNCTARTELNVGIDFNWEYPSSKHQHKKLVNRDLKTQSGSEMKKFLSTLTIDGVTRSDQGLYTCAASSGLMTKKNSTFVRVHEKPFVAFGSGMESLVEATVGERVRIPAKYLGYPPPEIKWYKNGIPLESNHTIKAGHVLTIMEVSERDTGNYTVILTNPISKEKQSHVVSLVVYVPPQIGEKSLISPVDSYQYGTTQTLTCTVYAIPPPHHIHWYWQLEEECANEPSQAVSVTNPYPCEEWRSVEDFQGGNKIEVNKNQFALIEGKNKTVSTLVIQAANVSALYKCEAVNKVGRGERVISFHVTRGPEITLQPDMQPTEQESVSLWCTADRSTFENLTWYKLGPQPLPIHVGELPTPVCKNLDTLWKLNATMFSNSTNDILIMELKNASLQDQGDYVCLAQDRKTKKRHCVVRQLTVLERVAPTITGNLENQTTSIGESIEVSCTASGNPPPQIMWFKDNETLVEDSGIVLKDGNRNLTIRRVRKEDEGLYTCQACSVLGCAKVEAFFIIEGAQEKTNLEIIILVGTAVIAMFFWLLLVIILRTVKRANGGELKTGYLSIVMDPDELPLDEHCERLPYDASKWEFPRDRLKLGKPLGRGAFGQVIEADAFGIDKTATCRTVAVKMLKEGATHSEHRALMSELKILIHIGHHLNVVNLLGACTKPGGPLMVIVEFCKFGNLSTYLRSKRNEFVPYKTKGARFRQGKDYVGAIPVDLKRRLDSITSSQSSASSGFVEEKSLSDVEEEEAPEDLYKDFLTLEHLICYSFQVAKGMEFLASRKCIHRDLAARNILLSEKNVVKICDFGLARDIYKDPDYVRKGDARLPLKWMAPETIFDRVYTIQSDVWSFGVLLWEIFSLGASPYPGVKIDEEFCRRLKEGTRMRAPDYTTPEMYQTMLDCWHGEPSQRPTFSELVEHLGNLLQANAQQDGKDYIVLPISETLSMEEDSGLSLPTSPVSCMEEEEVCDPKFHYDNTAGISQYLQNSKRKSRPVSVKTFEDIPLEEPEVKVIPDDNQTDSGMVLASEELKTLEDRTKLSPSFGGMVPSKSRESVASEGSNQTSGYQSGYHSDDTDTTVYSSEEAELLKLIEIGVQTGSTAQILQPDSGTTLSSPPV
T1 sequence (P35968 whole entry, change not shown): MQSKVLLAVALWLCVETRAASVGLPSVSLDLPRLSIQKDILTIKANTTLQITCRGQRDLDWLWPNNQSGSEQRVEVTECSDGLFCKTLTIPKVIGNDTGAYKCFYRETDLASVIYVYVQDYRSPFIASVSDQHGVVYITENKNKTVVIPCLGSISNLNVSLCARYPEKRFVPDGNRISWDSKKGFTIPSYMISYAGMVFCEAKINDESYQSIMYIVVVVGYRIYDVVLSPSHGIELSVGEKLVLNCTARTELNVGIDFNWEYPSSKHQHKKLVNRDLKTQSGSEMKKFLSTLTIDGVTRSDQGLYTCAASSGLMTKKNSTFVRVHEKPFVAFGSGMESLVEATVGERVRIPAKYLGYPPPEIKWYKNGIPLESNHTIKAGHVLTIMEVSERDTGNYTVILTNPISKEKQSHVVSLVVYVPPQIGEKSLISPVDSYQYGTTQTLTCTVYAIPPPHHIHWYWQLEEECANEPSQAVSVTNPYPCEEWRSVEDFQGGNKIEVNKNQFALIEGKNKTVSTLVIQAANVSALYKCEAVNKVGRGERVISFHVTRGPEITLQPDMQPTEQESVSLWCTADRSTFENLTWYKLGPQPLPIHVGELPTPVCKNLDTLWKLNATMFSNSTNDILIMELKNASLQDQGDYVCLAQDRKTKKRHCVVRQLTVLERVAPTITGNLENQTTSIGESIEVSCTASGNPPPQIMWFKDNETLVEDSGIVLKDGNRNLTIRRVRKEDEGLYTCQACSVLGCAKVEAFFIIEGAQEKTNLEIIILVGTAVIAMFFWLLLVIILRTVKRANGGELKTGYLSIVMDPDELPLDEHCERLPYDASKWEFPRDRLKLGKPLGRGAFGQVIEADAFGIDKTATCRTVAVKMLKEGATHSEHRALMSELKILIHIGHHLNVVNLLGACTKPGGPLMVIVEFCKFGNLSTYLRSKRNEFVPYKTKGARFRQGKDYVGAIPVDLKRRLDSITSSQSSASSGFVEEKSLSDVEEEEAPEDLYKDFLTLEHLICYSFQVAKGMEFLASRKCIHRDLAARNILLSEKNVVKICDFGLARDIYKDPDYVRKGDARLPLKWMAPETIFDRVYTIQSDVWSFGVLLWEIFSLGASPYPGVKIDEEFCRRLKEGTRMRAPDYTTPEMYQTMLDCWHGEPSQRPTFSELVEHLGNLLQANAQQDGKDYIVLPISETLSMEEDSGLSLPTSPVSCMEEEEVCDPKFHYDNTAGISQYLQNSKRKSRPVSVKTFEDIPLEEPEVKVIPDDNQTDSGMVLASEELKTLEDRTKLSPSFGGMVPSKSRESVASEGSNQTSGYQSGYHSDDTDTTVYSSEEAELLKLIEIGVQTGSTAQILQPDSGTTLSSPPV

| SMILES | IC50 (KDR (h)) | BAF3-KDR (MIN IL3) pIC50 [1] | IC50 [2] | IC50 [3] | BAF3-FGFR4 pIC50 [4] | BAF3-FGFR3 (MIN IL3) pIC50 [5] |
| --- | --- | --- | --- | --- | --- | --- |
| COc1ccc(Cl)c(N(CC2CCC(=O)N2)c2ccc3ncc(-c4cnn(C)c4)nc3n2)c1Cl (single isomer, unassigned) [Compound 90] | > 1 µM | <5 | > 10 µM | > 10 µM | <5 | 5.19 |
| COc1cc(OC)c(F)c(N(CCNC2COC2)c2ccc3ncc(-c4cnn(C)c4)nc3n2)c1F (single isomer, unassigned) [Compound 162] | 0.00891 µM | 6.61 | > 10 µM | > 10 µM | ~7.56 | 7.95 |
| COc1cc(OC)c(F)c(N(CCN(C2COC2)C2COC2)c2ccc3ncc(-c4cnn(C)c4)nc3n2)c1F (single isomer, unassigned) [Compound 163] | 0.00851 µM | 6.21 | > 10 µM | > 10 µM | 7.32 | 7.34 |
| COc1cc(/N=c2\ccc3ncc(-c4cnn(C)c4)nc3n2CC2CCOC2)c(F)c(OC)c1 (single isomer, unassigned) [Compound 169] | 0.00427 µM | 6.40 | > 10 µM | > 10 µM | 7.20 | 7.44 |
| COc1cc(OC)c(F)c(N(CC2CCOC2)c2ccc3ncc(-c4cnn(C)c4)nc3n2)c1 (single isomer, unassigned) [Compound 170] | 0.0135 µM | 5.56 | > 10 µM | > 10 µM | 6.49 | 6.78 |
| COc1cc(/N=c2\ccc3ncc(-c4cnn(CC(C)(C)O)c4)nc3n2CC(C)(C)O)c(F)c(OC)c1 (single isomer, unassigned) [Compound 207] | 0.00832 µM | 6.11 | > 10 µM | > 10 µM | 6.69 | ~7.57 |
| COc1cc(OC)c(F)c(N(CC(C)(C)O)c2ccc3ncc(-c4cnn(CC(C)(C)O)c4)nc3n2)c1 (single isomer, unassigned) [Compound 208] | 0.0776 µM | 5.57 | > 10 µM | > 10 µM | 6.16 | ~7.15 |
| COc1cc(OC)c(F)c(N(CC2CCC(=O)N2CCO)c2ccc3ncc(-c4cnn(C)c4)nc3n2)c1 (single isomer, unassigned) [Compound 218] | 0.0427 µM | 5.64 | > 10 µM | > 10 µM | 6.99 | ~7.64 |
| COc1cc(/N=c2\ccc3ncc(-c4cnn(C)c4)nc3n2CC2CCC(=O)N2CCO)c(F)c(OC)c1 (single isomer, unassigned) [Compound 219] | 0.00794 µM | 6.38 | > 10 µM | > 10 µM | 6.78 | 7.66 |
| COc1ccc(Cl)c(N(CC2CCC(=O)N2)c2ccc3ncc(-c4cnn(C)c4)nc3n2)c1Cl (stereo not drawn) [Compound 93] | > 1 µM | <5 | > 10 µM | > 10 µM | 5.02 | ~5.59 |
| COc1cc(O)c(F)c(N(Cc2ncc[nH]2)c2ccc3ncc(-c4cnn(C)c4)nc3n2)c1 [Compound 96] | 0.0115 µM | 5.89 | > 10 µM | > 10 µM | 7.16 | ~8.09 |
| COc1cc(OC)cc(N(Cc2ncc[nH]2)c2ccc3ncc(-c4cn[nH]c4)nc3n2)c1 [Compound 141] | 0.012 µM | 5.87 | > 10 µM | > 10 µM | 7.40 | ~8.13 |
| COc1cc(OC)cc(N(CC2COC2)c2ccc3ncc(-c4cnn(C)c4)nc3n2)c1 [Compound 142] | 0.0741 µM | <5 | > 10 µM | > 10 µM | 5.10 | 5.30 |
| COc1cc(/N=c2\ccc3ncc(-c4cnn(C)c4)nc3n2CC2COC2)c(F)c(OC)c1 [Compound 143] | 0.00501 µM | <5 | > 10 µM | > 10 µM | 5.29 | 5.42 |
| COc1cc(OC)c(F)c(N(CC2COC2)c2ccc3ncc(-c4cnn(C)c4)nc3n2)c1 [Compound 144] | 0.0229 µM | 5.19 | > 10 µM | > 10 µM | 6.13 | 6.33 |
| COc1cc(OC)c(F)c(N(Cc2nccn2CCO)c2ccc3ncc(-c4cnn(C)c4)nc3n2)c1 [Compound 145] | 0.0257 µM | 5.63 | > 10 µM | > 10 µM | 6.61 | 7.04 |
| COc1cc(OC)cc(N(CCN2CCOCC2)c2ccc3ncc(-c4cnn(C)c4)nc3n2)c1 [Compound 146] | 0.0417 µM | 5.28 | > 10 µM | > 10 µM | ~6.58 | ~7.14 |
| COc1cc(/N=c2\ccc3ncc(-c4cnn(C)c4)nc3n2CCN2CCOCC2)cc(OC)c1 [Compound 147] | 0.00562 µM | 6.17 | > 10 µM | > 10 µM | 6.85 | 7.23 |
| COc1cc(/N=c2\ccc3ncc(-c4cnn(C)c4)nc3n2CCN2CCOCC2)c(F)c(OC)c1 [Compound 148] | 0.00501 µM | 6.26 | > 10 µM | > 10 µM | 7.21 | 7.21 |
| COc1cc(OC)c(F)c(N(CCN2CCOCC2)c2ccc3ncc(-c4cnn(C)c4)nc3n2)c1 [Compound 149] | 0.0155 µM | 5.89 | > 10 µM | > 10 µM | 7.12 | ~7.66 |
| COc1cc(OC)cc(N(CCN2CCCC2=O)c2ccc3ncc(-c4cnn(C)c4)nc3n2)c1 [Compound 151] | 0.126 µM | <5 | > 10 µM | > 10 µM | 5.49 | 5.72 |
| COc1cc(OC)cc(N(Cc2ncc[nH]2)c2ccc3ncc(-c4ccccc4)nc3n2)c1 [Compound 152] | 0.0151 µM | 5.56 | > 10 µM | > 10 µM | 7.46 | 8.08 |
| COc1cc(OC)c(F)c(/N=c2\ccc3ncc(-c4cnn(C)c4)nc3n2CC2CCOC2)c1F (stereo not drawn) [Compound 154] | 0.00162 µM | 6.43 | > 10 µM | > 10 µM | ~7.6 | 7.59 |
| COc1cc(/N=c2\ccc3ncc(-c4cnn(C)c4)nc3n2Cc2cn[nH]c2)c(F)c(OC)c1 [Compound 155] | 0.00245 µM | 6.88 | > 10 µM | > 10 µM | 8.09 | 8.07 |
| COc1cc(/N=c2\ccc3ncc(-c4cnn(C)c4)nc3n2CCN2CCCC2=O)c(F)c(OC)c1 [Compound 156] | 0.0295 µM | 5.52 | > 10 µM | > 10 µM | 6.68 | 7.27 |
| COc1cc(OC)c(F)c(N(CCN2CCCC2=O)c2ccc3ncc(-c4cnn(C)c4)nc3n2)c1 [Compound 157] | 0.0468 µM | 5.30 | > 10 µM | > 10 µM | 6.08 | ~6.66 |
| COc1cc(/N=c2\ccc3ncc(-c4cnn(C)c4)nc3n2CC2CCC(=O)N2C)c(F)c(OC)c1 (stereo not drawn) [Compound 158] | 0.00661 µM | 6.16 | > 10 µM | > 10 µM | 6.78 | 7.20 |
